Data on ten compounds can be found in patent publication US9101577B2, “Analgesic pharmaceutical composition for oral administration” (Warszawski Uniwersytet Medyczny, priority 2011, dated 2015).

Assay [1] relates to Male Wistar rats. Briefly: Acute activity after single p.o. administration, paw withdrawal test (Randall and Selitto), % of analgesia. Format: in vivo, rat. Conditions: for analgesic activity on separate administration (codeine study) / analgesic activity / pain perception threshold on separate administration (dihydrocodeine study) / analgesic activity / pain threshold when administered alone (morphine study) / analgesic activity on separate administration (oxycodone study) / analgesic activity on separate administration (tramadol study): single separate administration p.o., magnesium salts 15 mg magnesium ions/kg; for analgesic activity on separate administration (codeine study): codeine 175 mg/kg; for effect on analgesic activity of codeine / activity on codeine analgesia compared to micronized form: 15 mg magnesium ions/kg p.o. with codeine 175 mg/kg p.o.; for effect on morphine analgesia / activity on morphine analgesia in comparison (to micronized magnesium lactate / to micronized form) / enhancement of morphine analgesia lasted up to: 15 mg magnesium ions/kg p.o. with morphine 15 mg/kg p.o.; for analgesic activity / pain perception threshold on separate administration (dihydrocodeine study): dihydrocodeine 50 mg/kg; for analgesic activity / pain threshold when administered alone (morphine study): morphine 15 mg/kg; for analgesic activity on separate administration (oxycodone study): oxycodone 5 mg/kg; for analgesic activity on separate administration (tramadol study): tramadol 125 mg/kg. How it is done:
(§1) Male Wistar rats (250-300 g) were housed in a room maintained at a temperature of 20±2° C. under 12 h-12 h light-dark cycles. The animals had free access to food and water. Experimental groups consisted of six rats.
(§2) Drugs • Morphine at a dose of 15 mg/kg, codeine at a dose of 175 mg/kg, tramadol at a dose of 125 mg/kg and oxycodone at a dose of 5 mg/kg were dissolved in distilled water; • Dihydrocodeine at a dose of 50 mg/kg was suspended in 1% solution of methylcellulose; • Magnesium lactate (in micronized form)—at a dose of 15 mg magnesium ions/kg (150 mg of magnesium lactate/kg) was suspended in 0.5% solution of methylcellulose; • Magnesium lactate in normal (non-micronized) form—at doses of 15 or 30 mg magnesium ions/kg (150 or 300 mg of magnesium lactate/kg, respectively) was suspended in 0.5% solution of methylcellulose; • Magnesium citrate (in micronized and normal form)—at a dose of 15 mg magnesium ions/kg (112 mg of magnesium citrate/kg) was dissolved in distilled water; • Magnesium hydroaspartate (in micronized and normal form)—at a dose of 15 mg magnesium ions/kg (216 mg of magnesium hydroaspartate/kg) was suspended in 0.5% solution of methylcellulose; • Magnesium chloride (in micronized and normal form)—at a dose of 15 mg magnesium ions/kg (59.5 mg of magnesium chloride/kg) was dissolved in distilled water; • Control animals received a 0.5% solution of methylcellulose, a 1% solution of methylcellulose and distilled water, respectively, according to the same time schedule.
Magnesium salts and investigated opioids were administered concomitantly.
The micronized form of magnesium salts used in experiments contains particles of magnesium compounds of size D90<50 μm.
The normal magnesium salts form used in experiments contains particles of sizes commonly available in the market.
Acute activity of investigated drugs was measured in short time periods (from 5 to 300 min) after single administration.
(§3) All drugs were administered per os (p.o.); literally—orally. However, in practice, drugs were administered intragastric via a gastric tube.
(§4) Changes in pain thresholds were determined using a mechanical stimuli—the modification of the classic paw withdrawal test described by Randall and Selitto [1957]. In order to produce mechanical stimulation, progressively increasing pressure was applied to the dorsal surface of the rat's paw using an analgesymeter. The instrument used increased the force on the paw at a rate of 32 grams per second. The nociceptive threshold was defined as force in grams, at which the rat attempted to withdraw its right hindpaw and values of pressure were recorded at this very moment. At least two observers controlled the response.
(§5) Nociceptive thresholds (average of two trials) measured for each animal before single administration of investigated drugs (measurement of acute activity) or in day 0 before the first administration (measurement of prolonged activity) constituted the baseline pain threshold—A. Next, measurements of the withdrawal threshold to mechanical stimuli were performed at 5, 15, 30, 60, 90, 120, 180, 240, 300 min after drug administration (measurements of acute activity) or every day before drug administration (measurements of prolonged activity)—B.
(§6) In all experimental sessions (i.e. every day, each drug investigated) values of thresholds obtained (B) were compared to baseline (A).
(§7) Changes in pain threshold were calculated as a percent of baseline value according to the following formula:
(§8) [formula] • C—% of analgesia; A—pressure (in g), baseline pain threshold; B—pressure (in g) in consecutive measurements.
(§9) Percents of analgesia values calculated as above for individual animals were subsequently used to calculate average values in particular experimental groups and for statistical analysis.
The results are expressed as mean values±standard deviation of the mean (±S.E.M.).

In assay [2] the test system is Male Wistar rats. Put plainly: Prolonged activity on repeated daily p.o. administration (7 or 10 days), paw withdrawal test (Randall and Selitto). Format: in vivo, rat. Conditions: separate administration p.o.; codeine 175 mg/kg; magnesium lactate micronized 15 or normal 30 mg magnesium ions/kg. How it is done: as §1, §2
Prolonged activity of the investigated drugs was measured the following day after initial administration, but before the next administration as well as after cessation of administration. Drugs were administered for seven consecutive days (administration of morphine, codeine, dihydrocodeine, oxycodone) or for ten days (administration of tramadol).
as §3, §4, §5, §6, §7, §8, §9
The results are expressed as mean values±standard […] of the mean (±S.E.M.). The statistical significance of differences between groups was evaluated by Student's t-test. p≦0.05 was accepted as statistically significant.

Where [3] appears, read: single administration, 15 mg magnesium ions/kg p.o. with tramadol 125 mg/kg p.o.
Setting [4] is: single administration, 15 mg magnesium ions/kg p.o. with oxycodone 5 mg/kg p.o.
[5] abbreviates: single administration, 15 mg magnesium ions/kg p.o. with dihydrocodeine 50 mg/kg p.o.

`COc1ccc2c3c1O[C@H]1[C@@H](O)C=C[C@H]4[C@@H](C2)N(C)CC[C@@]341` [codeine, reference compound]: the “analgesic activity on separate administration (codeine study)” value in the assay on Male Wistar rats [1] is recorded as “did not exhibit analgesic activity”. For the same compound, in the assay with Male Wistar rats [2], the “analgesic activity on separate administration, 7 days (codeine study)” value is “did not exhibit analgesic activity”.
Turning to `[Cl-].[Cl-].[Mg+2]` [magnesium chloride, Magnesium chloride], in the assay on Male Wistar rats [1] (setting [3]), the “enhancement of tramadol analgesia lasted until” value was 90 min, the “time at which enhancement of tramadol analgesia appeared” value came to 5 min and the “time of maximum activity on tramadol analgesia” value was 15 min.
For `N[C@@H](CC(=O)[O-])C(=O)[O-].N[C@@H](CC(=O)[O-])C(=O)[O-].[H+].[H+].[Mg+2]` [magnesium hydroaspartate, Magnesium hydroaspartate], in the assay on Male Wistar rats [1] (setting [4]), the “effect on oxycodone analgesia” value is “also enhanced oxycodone analgesia”.
For `[Cl-].[Cl-].[Mg+2]` [micronized magnesium chloride, Magnesium chloride], in the assay with Male Wistar rats [1] (single administration), the “effect on analgesic activity of codeine” value is on record as “significantly enhanced the analgesic activity of codeine” and the “effect on morphine analgesia” value is “significantly enhanced morphine analgesia”. Further, in the assay with Male Wistar rats [1] (setting [5]), the “effect on dihydrocodeine analgesia” value is recorded as “significantly enhanced dihydrocodeine analgesia”; the “time course of activity on dihydrocodeine analgesia” value was “gradually increased and reached a maximum between min 45 and 90 of the measurements and then became weaker by min 210”. For the same compound, in the assay on Male Wistar rats [1] (setting [4]), the “effect on oxycodone analgesia” value is “significantly enhanced oxycodone analgesia”; the “time at which activity on oxycodone analgesia appeared” value is reported as 5 min; the “time course of activity on oxycodone analgesia” value is “maintained at a constant level up to min 30 of the study, then became weaker in min 45 and disappeared in min 60”. The “effect on antinociceptive activity of tramadol” value (“effect … of tramadol” for short) with Male Wistar rats [1] (setting [3]) was “increased antynociceptive activity of tramadol”. For the same compound, in the assay on Male Wistar rats [1], the “analgesic activity on separate administration (codeine study)” value is listed as “did not exhibit analgesic activity”; the “analgesic activity / pain perception threshold on separate administration (dihydrocodeine study)” value is on record as “did not exhibit analgesic activity”; the “analgesic activity / pain threshold when administered alone (morphine study)” value (“analgesic activity / pain threshold” for short) was “Neither morphine nor magnesium lactate and chloride in micronized or normal form administered alone showed analgesic activity”; the “analgesic activity on separate administration (oxycodone study)” value (from here on “analgesic activity … (oxycodone study)”) is “showed no analgesic activity”. Also, the “analgesic activity on separate administration (tramadol study)” value (“analgesic activity … (tramadol study)” for short) in the assay with Male Wistar rats [1] was “did not exhibit analgesic activity”.
For `N[C@@H](CC(=O)O)C(=O)O` [micronized magnesium hydroaspartate, Magnesium hydroaspartate], in the assay with Male Wistar rats [1] (single administration), the “effect on analgesic activity of codeine” value is “also enhanced codeine analgesia”; the “activity on morphine analgesia in comparison (to micronized magnesium lactate / to micronized form)” value is “weaker, although significant”; the “effect on morphine analgesia” value was “also enhanced morphine analgesia”; the “enhancement of morphine analgesia lasted up to” value was found to be 180 min. Further, in the assay on Male Wistar rats [1] (setting [5]), the “activity on dihydrocodeine analgesia in comparison (to micronized form / to magnesium lactate)” value is “lasted a shorter time” and the “effect on dihydrocodeine analgesia” value is reported as “also enhanced dihydrocodeine analgesia”. In addition, in the assay with Male Wistar rats [1] (setting [3]), the “activity on tramadol analgesia in comparison (to micronized form / to magnesium chloride)” value is “weaker throughout the study” and the “effect … of tramadol” value is reported as “also enhanced tramadol analgesia”. Also, in the assay with Male Wistar rats [1], the “analgesic activity on separate administration (codeine study)” value was “did not exhibit analgesic activity”, the “analgesic activity / pain perception threshold on separate administration (dihydrocodeine study)” value is reported as “did not exhibit analgesic activity”, the “analgesic activity / pain threshold” value is given as “did not alter the pain threshold” and the “analgesic activity … (oxycodone study)” value is listed as “showed no analgesic activity”. In addition, the “analgesic activity … (tramadol study)” value in the assay with Male Wistar rats [1] is “did not exhibit analgesic activity”.
As to `[Cl-].[Cl-].[Mg+2]` [normal magnesium chloride, Magnesium chloride], the “activity on dihydrocodeine analgesia in comparison (to micronized form / to magnesium lactate)” value in the assay on Male Wistar rats [1] (setting [5]) is reported as “somewhat weaker”.
As for `N[C@@H](CC(=O)O)C(=O)O` [normal magnesium hydroaspartate, Magnesium hydroaspartate], in the assay with Male Wistar rats [1] (single administration), the “activity on codeine analgesia compared to micronized form” value is “significantly weaker” and the “activity on morphine analgesia in comparison (to micronized magnesium lactate / to micronized form)” value is “much weaker”. Moreover, the “activity on dihydrocodeine analgesia in comparison (to micronized form / to magnesium lactate)” value in the assay with Male Wistar rats [1] (setting [5]) is “significantly weaker”. For the same compound, the “activity on oxycodone analgesia compared to micronized form” value in the assay on Male Wistar rats [1] (setting [4]) was “enhanced oxycodone analgesia significantly less when compared to the micronized form”. In addition, in the assay on Male Wistar rats [1], the “analgesic activity on separate administration (codeine study)” value is recorded as “did not exhibit analgesic activity”, the “analgesic activity / pain perception threshold on separate administration (dihydrocodeine study)” value was “did not exhibit analgesic activity”, the “analgesic activity / pain threshold” value was “did not alter the pain threshold” and the “analgesic activity … (oxycodone study)” value is “showed no analgesic activity”. Further, the “analgesic activity … (tramadol study)” value with Male Wistar rats [1] was “did not exhibit analgesic activity”.
With Magnesium citrate, the “effect on oxycodone analgesia” value in the assay with Male Wistar rats [1] (setting [4]) is on record as “also enhanced oxycodone analgesia”.
Consider “Magnesium citrate [micronized magnesium citrate]”, for which, in the assay on Male Wistar rats [1] (single administration), the “effect on analgesic activity of codeine” value is on record as “also enhanced codeine analgesia”; the “activity on morphine analgesia in comparison (to micronized magnesium lactate / to micronized form)” value is listed as “weaker, although significant”; the “effect on morphine analgesia” value was “also enhanced morphine analgesia”; the “enhancement of morphine analgesia lasted up to” value amounted to 120 min. Also, in the assay with Male Wistar rats [1] (setting [5]), the “activity on dihydrocodeine analgesia in comparison (to micronized form / to magnesium lactate)” value is “lasted a shorter time” and the “effect on dihydrocodeine analgesia” value is “also enhanced dihydrocodeine analgesia”. Also, the “effect … of tramadol” value in the assay on Male Wistar rats [1] (setting [3]) is listed as “also enhanced tramadol analgesia”. Further, in the assay with Male Wistar rats [1], the “analgesic activity on separate administration (codeine study)” value is on record as “did not exhibit analgesic activity”, the “analgesic activity / pain perception threshold on separate administration (dihydrocodeine study)” value is reported as “did not exhibit analgesic activity”, the “analgesic activity / pain threshold” value was “did not alter the pain threshold” and the “analgesic activity … (oxycodone study)” value is “showed no analgesic activity”. The “analgesic activity … (tramadol study)” value in the assay with Male Wistar rats [1] is “did not exhibit analgesic activity”.
Take “Magnesium citrate [normal magnesium citrate]”: in the assay with Male Wistar rats [1] (single administration), the “activity on codeine analgesia compared to micronized form” value is reported as “significantly weaker” and the “activity on morphine analgesia in comparison (to micronized magnesium lactate / to micronized form)” value is recorded as “much weaker”. Moreover, the “activity on dihydrocodeine analgesia in comparison (to micronized form / to magnesium lactate)” value in the assay with Male Wistar rats [1] (setting [5]) is “significantly weaker”. Moreover, the “activity on oxycodone analgesia compared to micronized form” value in the assay on Male Wistar rats [1] (setting [4]) is listed as “enhanced oxycodone analgesia significantly less when compared to the micronized form”. In the assay on Male Wistar rats [1], the “analgesic activity on separate administration (codeine study)” value is on record as “did not exhibit analgesic activity”, the “analgesic activity / pain perception threshold on separate administration (dihydrocodeine study)” value is recorded as “did not exhibit analgesic activity”, the “analgesic activity / pain threshold” value is “did not alter the pain threshold” and the “analgesic activity … (oxycodone study)” value is “showed no analgesic activity”. In addition, the “analgesic activity … (tramadol study)” value with Male Wistar rats [1] is “did not exhibit analgesic activity”.
